In PubChem BioAssay (NCI):
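96-well plates; 48 h exposure; 5 concentrations. Endpoints by linear interpolation between flanking doses. Not reached: highest tested concentration assigned. TGI marks complete inhibition of growth.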

What was measured:
Assay in all cases: inhibition of tumour cell growth, NCI panel, 48 h
PC-3 prostate = test system: PC-3 prostate
MDA-MB-435 = test system: MDA-MB-435
HCT-15 colon = test system: HCT-15 colon
EKVX NSCLC = test system: EKVX NSCLC
HCT-116 colon = test system: HCT-116 colon
SK-OV-3 ovarian = test system: SK-OV-3 ovarian
HL-60(TB) leukemia = test system: HL-60(TB) leukemia
NCI-H226 lung = test system: NCI-H226 lung
UO-31 renal = test system: UO-31 renal
786-0 renal = test system: 786-0 renal
SF-539 CNS = test system: SF-539 CNS
UACC-62 melanoma = test system: UACC-62 melanoma
SK-MEL-2 melanoma = test system: SK-MEL-2 melanoma
SNB-19 CNS = test system: SNB-19 CNS
CAKI-1 renal = test system: CAKI-1 renal
SF-268 CNS = test system: SF-268 CNS
UACC-257 melanoma = test system: UACC-257 melanoma
M14 melanoma = test system: M14 melanoma
HOP-62 NSCLC = test system: HOP-62 NSCLC

Row | SMILES | TGI (PC-3 prostate) | TGI (MDA-MB-435) | TGI (HCT-15 colon) | TGI (EKVX NSCLC) | TGI (HCT-116 colon) | TGI (SK-OV-3 ovarian) | TGI (HL-60(TB) leukemia) | TGI (NCI-H226 lung) | TGI (UO-31 renal) | TGI (786-0 renal) | TGI (SF-539 CNS) | TGI (UACC-62 melanoma) | TGI (SK-MEL-2 melanoma) | TGI (SNB-19 CNS) | TGI (CAKI-1 renal) | TGI (SF-268 CNS) | TGI (UACC-257 melanoma) | TGI (M14 melanoma) | TGI (HOP-62 NSCLC)
1 | CC1(C)[C@H]2Cc3cc4nc5ccccn5c4cc3[C@@H]1C2 | 41.5 µM | 36.7 µM | 35 µM | 32.7 µM | 33 µM | 36.4 µM | 57.2 µM | 35.4 µM | 26.9 µM | 32.7 µM | 33.6 µM | 29.9 µM | 32 µM | 31.8 µM | 30 µM | 34.5 µM | 34.2 µM | 38.2 µM | 39.7 µM
2 | CC/C=C\C=C/C(=O)N/C=C/CCC | > 100 µM | > 100 µM | > 100 µM | > 100 µM | > 100 µM | > 100 µM | > 100 µM | > 100 µM | > 100 µM | > 100 µM | > 100 µM | > 100 µM | > 100 µM | > 100 µM | > 100 µM | > 100 µM | > 100 µM | > 100 µM | > 100 µM
3 | c1ccc(/C(=N/Nc2ccccn2)c2cccnn2)cc1 | > 100 µM | > 100 µM | > 100 µM | 16.7 µM | > 100 µM | > 47.6 µM | 71.3 µM | 11.2 µM | 6.02 µM | > 100 µM | 24.9 µM | > 52.6 µM | > 100 µM | > 86.9 µM | > 41.6 µM | 6.42 µM | > 100 µM | 18.5 µM | > 63.8 µM
4 | Cc1cccc(N=N/C(=N\NC(=O)c2cc(Cl)ccc2O)c2ccc(N(CCC#N)CCC#N)cc2C)c1 | > 100 µM | > 100 µM | 88.2 µM | > 100 µM | > 100 µM | > 100 µM | 34.4 µM | > 100 µM | 82.9 µM | > 100 µM | > 100 µM | 84.6 µM | > 100 µM | > 100 µM | > 100 µM | > 100 µM | 97.6 µM | > 100 µM | > 100 µM
5 | CCCCCCCCCCCCc1ccsc1-c1ccc(-c2ccc(-c3sccc3CCCCCCCCCCCC)s2)s1 | > 100 µM | > 100 µM | > 100 µM | > 100 µM | > 100 µM | > 100 µM | > 100 µM | > 100 µM | > 100 µM | > 100 µM | > 100 µM | > 100 µM | > 100 µM | > 100 µM | > 100 µM | > 100 µM | > 100 µM | > 100 µM | > 100 µM
6 | CCN(CC)CCSc1c(C(C)=O)c(=O)n(-c2ccccc2)c(=S)n1-c1ccccc1 | 12 µM | 21.2 µM | 8.86 µM | 32.7 µM | 6.09 µM | > 100 µM | 8.71 µM | > 60.3 µM | 3.86 µM | 3.38 µM | 6.01 µM | 27.7 µM | 31.6 µM | 55.8 µM | 24 µM | 35.8 µM | 23.4 µM | 4.12 µM | 45.3 µM
